Data from ChEMBL document CHEMBL4177534, “Discovery and evaluation of 1H-pyrrolo[2,3-b]pyridine based selective and reversible small molecule BTK inhibitors for the treatment of rheumatoid arthritis” (Bioorg Med Chem Lett, 2017).

Columns and labels:
[1] = molecular target: Tyrosine-protein kinase BTK (Homo sapiens, UniProt Q06187); assay: Inhibition of recombinant human full length BTK preincubated for 10 mins followed by Tk-biotin peptide substrate addition after 90 mins by TR-FRET assay
[2] = Metabolic stability in human liver microsomes assessed as metabolism rate; assay type: ADME, microsome
[3] = molecular target: Tyrosine-protein kinase ITK/TSK (Homo sapiens, UniProt Q08881); assay: Inhibition of recombinant human full length ITK preincubated for 10 mins followed by Tk-biotin peptide substrate addition after 60 mins by TR-FRET assay
[4] = molecular target: Tyrosine-protein kinase TXK (Homo sapiens, UniProt P42681); assay: Inhibition of TXK (unknown origin)
[5] = molecular target: Tyrosine-protein kinase JAK3 (Homo sapiens, UniProt P52333); assay: Inhibition of recombinant human JAK3 (781 to 1124 residues) preincubated for 10 mins followed by poly-[Glu-Tyr(4:1) substrate addition after 60 mins in presence of ATP by Kinase-Glo assay
Mus musculus [6] = assay: Ex-vivo inhibition of BTK in C57BL/6J mouse assessed as anti-mouse IgD antibody stimulated BCR mediated CD69 level in whole blood isolated from 10 mg/kg, po bid treated mouse measured after 6 hrs post first dose by flow cytometry relative to control; assay type: functional; design: scale not given: the % may be the effect or the level left
Mus musculus [7] = assay: Antiarthritic activity in DBA/1J mouse type-2 collagen-induced arthritis model assessed as reduction in clinical score immunized with type-2 collagen on day 1 and day 21 followed by LPS challenge on day 28 subsequent compound administration po bid by hematoxylin and eosin staining based assay; assay type: functional, organism-based
[8] = molecular target: Interleukin-1 receptor-associated kinase 4 (Homo sapiens) (UniProt Q9NWZ3); assay: Inhibition of recombinant human full length N-terminal GST-tagged IRAK4 expressed in baculovirus infected Sf9 cells assessed as change in enzyme activity at 1 uM in presence of 2 uM ATP relative to control; design: scale not given: the % may be the effect or the level left
[9] = molecular target: Inhibitor of nuclear factor kappa-B kinase subunit beta (Homo sapiens) (UniProt O14920); assay: Inhibition of recombinant human N-terminal GST-tagged IKKbeta expressed in baculovirus infected Sf9 cells assessed as change in enzyme activity at 1 uM in presence of 1 uM ATP relative to control; design: scale not given: the % may be the effect or the level left
[10] = molecular target: Casein kinase I isoform alpha (Homo sapiens) (UniProt P48729); assay: Inhibition of recombinant human full length N-terminal GST-tagged CK1alpha1 expressed in baculovirus infected Sf9 cells assessed as change in enzyme activity at 1 uM in presence of 1 uM ATP relative to control; design: scale not given: the % may be the effect or the level left
[11] = molecular target: Platelet-derived growth factor receptor beta (Homo sapiens) (UniProt P09619); assay: Inhibition of recombinant human full length N-terminal GST-tagged PDGFRbeta (unknown origin) expressed in baculovirus infected Sf9 cells assessed as change in enzyme activity at 1 uM in presence of 1 uM ATP relative to control; design: scale not given: the % may be the effect or the level left
[12] = molecular target: Tyrosine-protein kinase Lck (Homo sapiens) (UniProt P06239); assay: Inhibition of recombinant human full length N-terminal GST-tagged LCK expressed in baculovirus infected Sf9 cells assessed as change in enzyme activity at 1 uM in presence of 1 uM ATP relative to control; design: scale not given: the % may be the effect or the level left
[13] = molecular target: Vascular endothelial growth factor receptor 3 (Homo sapiens) (UniProt P35916); assay: Inhibition of recombinant human N-terminal GST-tagged FLT4 (800 to end residues) expressed in baculovirus infected Sf9 cells assessed as change in enzyme activity at 1 uM in presence of 2 uM ATP relative to control; design: scale not given: the % may be the effect or the level left
[14] = molecular target: Ribosomal protein S6 kinase (Homo sapiens) (UniProt P51812+Q9UBS0+O75676+Q15349+O75582+P23443+Q9UK32+Q15418); assay: Inhibition of recombinant human full length N-terminal GST-tagged p70S6K expressed in baculovirus infected Sf9 cells assessed as change in enzyme activity at 1 uM in presence of 2 uM ATP relative to control; design: scale not given: the % may be the effect or the level left
[15] = molecular target: Epidermal growth factor receptor (Homo sapiens) (UniProt P00533); assay: Inhibition of recombinant human N-terminal GST-tagged EGFR expressed in baculovirus infected Sf9 cells assessed as change in enzyme activity at 1 uM in presence of 1 uM ATP relative to control; design: scale not given: the % may be the effect or the level left
[16] = molecular target: Dual specificity mitogen-activated protein kinase kinase 1 (Homo sapiens) (UniProt Q02750); assay: Inhibition of recombinant full length N-terminal GST-tagged MEK1 (unknown origin) assessed as change in enzyme activity at 1 uM in presence of 1 uM ATP relative to control; design: scale not given: the % may be the effect or the level left
[17] = molecular target: Mitogen-activated protein kinase 3 (Homo sapiens) (UniProt P27361); assay: Inhibition of recombinant human full length ERK1 assessed as change in enzyme activity at 1 uM in presence of 1 uM ATP relative to control; design: scale not given: the % may be the effect or the level left
[18] = molecular target: MAP kinase-activated protein kinase 3 (Homo sapiens) (UniProt Q16644); assay: Inhibition of recombinant human full length N-terminal GST-tagged MAPKAPK3 expressed in baculovirus infected Sf9 cells assessed as change in enzyme activity at 1 uM in presence of 1 uM ATP relative to control; design: scale not given: the % may be the effect or the level left
[19] = molecular target: Tyrosine-protein kinase Blk (Homo sapiens) (UniProt P51451); assay: Inhibition of recombinant human full length N-terminal GST-tagged BLK expressed in baculovirus infected Sf9 cells assessed as change in enzyme activity at 1 uM in presence of 1 uM ATP relative to control; design: scale not given: the % may be the effect or the level left
[20] = molecular target: Rho-associated protein kinase 1 (Homo sapiens) (UniProt Q13464); assay: Inhibition of recombinant human N-terminal GST-tagged ROCK1 (17 to 535 residues) expressed in baculovirus infected Sf9 cells assessed as change in enzyme activity at 1 uM in presence of 1 uM ATP relative to control; design: scale not given: the % may be the effect or the level left
[21] = molecular target: Protein kinase C (PKC) (Homo sapiens) (UniProt O94806+P41743+P17252+P05129+Q05655+P05771+Q05513+Q02156+P24723+Q15139+Q04759); assay: Inhibition of recombinant human full length N-terminal GST-tagged PKCalpha expressed in baculovirus infected Sf9 cells assessed as change in enzyme activity at 1 uM in presence of 1 uM ATP relative to control; design: scale not given: the % may be the effect or the level left
[22] = molecular target: Serine/threonine-protein kinase Nek11 (Homo sapiens) (UniProt Q8NG66); assay: Inhibition of recombinant human full length N-terminal GST-tagged NEK11 expressed in baculovirus infected Sf9 cells assessed as change in enzyme activity at 1 uM in presence of 2 uM ATP relative to control; design: scale not given: the % may be the effect or the level left
[23] = molecular target: Ephrin type-A receptor 3 (Homo sapiens) (UniProt P29320); assay: Inhibition of recombinant human N-terminal GST-tagged EPHA3 (571 to end residues) expressed in baculovirus infected Sf9 cells assessed as change in enzyme activity at 1 uM in presence of 2 uM ATP relative to control; design: scale not given: the % may be the effect or the level left
[24] = molecular target: Aurora kinase A (Homo sapiens) (UniProt O14965); assay: Inhibition of recombinant full length N-terminal GST-tagged AURORA A (unknown origin) expressed in baculovirus infected Sf9 cells assessed as change in enzyme activity at 1 uM in presence of 2 uM ATP relative to control; design: scale not given: the % may be the effect or the level left
[25] = molecular target: PAK 1/CDC42 (Homo sapiens) (UniProt Q13153+P60953); assay: Inhibition of recombinant human full length N-terminal GST-tagged PAK1/CDC42 expressed in baculovirus infected Sf9 cells assessed as change in enzyme activity at 1 uM in presence of 2 uM ATP relative to control; design: scale not given: the % may be the effect or the level left
Chain of PAK 1/CDC42 (Homo sapiens) (P60953 whole entry, looked up): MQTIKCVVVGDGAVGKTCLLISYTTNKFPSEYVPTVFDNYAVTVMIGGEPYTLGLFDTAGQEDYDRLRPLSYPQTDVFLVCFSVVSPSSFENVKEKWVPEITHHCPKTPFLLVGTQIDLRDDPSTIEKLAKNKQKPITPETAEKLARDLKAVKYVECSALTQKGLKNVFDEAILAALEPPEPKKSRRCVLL
Chain of PAK 1/CDC42 (Homo sapiens) (Q13153 whole entry, looked up): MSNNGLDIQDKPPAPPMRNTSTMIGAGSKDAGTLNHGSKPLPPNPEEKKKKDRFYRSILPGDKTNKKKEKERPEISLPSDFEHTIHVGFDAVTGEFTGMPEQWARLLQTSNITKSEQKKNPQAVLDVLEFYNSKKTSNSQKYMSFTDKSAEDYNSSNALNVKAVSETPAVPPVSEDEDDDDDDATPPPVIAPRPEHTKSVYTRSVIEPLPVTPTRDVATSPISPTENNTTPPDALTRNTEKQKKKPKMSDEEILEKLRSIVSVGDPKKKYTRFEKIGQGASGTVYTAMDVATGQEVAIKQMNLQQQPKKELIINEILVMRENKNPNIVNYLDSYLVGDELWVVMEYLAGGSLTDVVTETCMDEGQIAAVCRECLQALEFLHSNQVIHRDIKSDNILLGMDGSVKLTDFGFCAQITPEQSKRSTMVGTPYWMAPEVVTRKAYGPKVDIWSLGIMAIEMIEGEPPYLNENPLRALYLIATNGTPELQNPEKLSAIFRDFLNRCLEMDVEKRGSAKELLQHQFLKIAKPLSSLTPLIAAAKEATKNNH

Chain of Tyrosine-protein kinase Lck (Homo sapiens) (P06239 2-509 limits assumed): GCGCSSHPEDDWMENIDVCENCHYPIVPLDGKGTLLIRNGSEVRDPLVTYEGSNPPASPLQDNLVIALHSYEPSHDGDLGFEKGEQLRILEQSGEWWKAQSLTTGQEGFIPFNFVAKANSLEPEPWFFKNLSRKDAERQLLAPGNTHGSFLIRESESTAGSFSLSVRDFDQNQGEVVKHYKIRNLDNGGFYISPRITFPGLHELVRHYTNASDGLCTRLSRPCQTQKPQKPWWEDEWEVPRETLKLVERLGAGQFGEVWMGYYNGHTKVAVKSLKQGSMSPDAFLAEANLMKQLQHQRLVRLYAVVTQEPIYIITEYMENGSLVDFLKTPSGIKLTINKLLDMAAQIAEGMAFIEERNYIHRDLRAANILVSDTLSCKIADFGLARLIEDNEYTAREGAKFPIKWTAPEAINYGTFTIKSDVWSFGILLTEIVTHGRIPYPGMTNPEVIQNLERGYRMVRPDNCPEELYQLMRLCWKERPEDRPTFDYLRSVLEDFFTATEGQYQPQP
Chain of Tyrosine-protein kinase TXK (P42681 whole entry, the tested form may be a part): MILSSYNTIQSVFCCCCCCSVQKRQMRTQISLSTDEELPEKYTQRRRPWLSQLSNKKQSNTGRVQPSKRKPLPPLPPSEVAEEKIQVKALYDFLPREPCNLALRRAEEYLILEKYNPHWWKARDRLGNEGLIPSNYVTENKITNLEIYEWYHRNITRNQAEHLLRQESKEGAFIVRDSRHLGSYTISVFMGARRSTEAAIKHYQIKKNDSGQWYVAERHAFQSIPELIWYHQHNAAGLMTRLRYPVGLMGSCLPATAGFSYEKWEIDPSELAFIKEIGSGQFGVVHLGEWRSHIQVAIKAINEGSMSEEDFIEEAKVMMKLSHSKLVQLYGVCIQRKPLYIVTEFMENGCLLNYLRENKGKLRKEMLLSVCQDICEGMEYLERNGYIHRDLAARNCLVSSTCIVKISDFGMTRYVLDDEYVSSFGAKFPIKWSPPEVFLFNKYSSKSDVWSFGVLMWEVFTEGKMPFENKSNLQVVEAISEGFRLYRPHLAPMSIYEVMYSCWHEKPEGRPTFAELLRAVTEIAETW
Chain of Ephrin type-A receptor 3 (Homo sapiens) (P29320 whole entry): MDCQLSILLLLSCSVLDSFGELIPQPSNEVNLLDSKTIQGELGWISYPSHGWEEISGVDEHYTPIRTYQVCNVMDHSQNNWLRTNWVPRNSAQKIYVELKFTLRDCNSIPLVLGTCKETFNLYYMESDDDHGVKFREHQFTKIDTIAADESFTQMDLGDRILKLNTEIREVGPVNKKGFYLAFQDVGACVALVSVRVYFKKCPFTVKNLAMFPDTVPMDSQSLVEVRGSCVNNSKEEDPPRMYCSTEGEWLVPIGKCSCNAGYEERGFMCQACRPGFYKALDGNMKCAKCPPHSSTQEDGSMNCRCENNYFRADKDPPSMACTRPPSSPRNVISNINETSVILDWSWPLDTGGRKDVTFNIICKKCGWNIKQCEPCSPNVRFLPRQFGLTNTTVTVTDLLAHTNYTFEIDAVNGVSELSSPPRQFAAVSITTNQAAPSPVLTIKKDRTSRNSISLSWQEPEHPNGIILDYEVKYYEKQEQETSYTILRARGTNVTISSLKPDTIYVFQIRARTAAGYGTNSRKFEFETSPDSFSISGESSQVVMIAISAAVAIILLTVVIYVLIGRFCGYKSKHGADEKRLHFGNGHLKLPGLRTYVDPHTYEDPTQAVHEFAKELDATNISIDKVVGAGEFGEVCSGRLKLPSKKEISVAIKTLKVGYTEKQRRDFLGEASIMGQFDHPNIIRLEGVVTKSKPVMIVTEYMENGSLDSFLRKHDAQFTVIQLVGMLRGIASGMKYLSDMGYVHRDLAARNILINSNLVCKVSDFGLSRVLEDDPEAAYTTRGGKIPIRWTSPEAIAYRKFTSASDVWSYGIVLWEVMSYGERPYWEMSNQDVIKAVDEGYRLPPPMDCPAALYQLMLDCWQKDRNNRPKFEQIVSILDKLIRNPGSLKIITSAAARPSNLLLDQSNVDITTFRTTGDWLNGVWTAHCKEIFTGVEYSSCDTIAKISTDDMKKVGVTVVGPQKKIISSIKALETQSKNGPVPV
Chain of Serine/threonine-protein kinase Nek11 (Homo sapiens) (Q8NG66 whole entry): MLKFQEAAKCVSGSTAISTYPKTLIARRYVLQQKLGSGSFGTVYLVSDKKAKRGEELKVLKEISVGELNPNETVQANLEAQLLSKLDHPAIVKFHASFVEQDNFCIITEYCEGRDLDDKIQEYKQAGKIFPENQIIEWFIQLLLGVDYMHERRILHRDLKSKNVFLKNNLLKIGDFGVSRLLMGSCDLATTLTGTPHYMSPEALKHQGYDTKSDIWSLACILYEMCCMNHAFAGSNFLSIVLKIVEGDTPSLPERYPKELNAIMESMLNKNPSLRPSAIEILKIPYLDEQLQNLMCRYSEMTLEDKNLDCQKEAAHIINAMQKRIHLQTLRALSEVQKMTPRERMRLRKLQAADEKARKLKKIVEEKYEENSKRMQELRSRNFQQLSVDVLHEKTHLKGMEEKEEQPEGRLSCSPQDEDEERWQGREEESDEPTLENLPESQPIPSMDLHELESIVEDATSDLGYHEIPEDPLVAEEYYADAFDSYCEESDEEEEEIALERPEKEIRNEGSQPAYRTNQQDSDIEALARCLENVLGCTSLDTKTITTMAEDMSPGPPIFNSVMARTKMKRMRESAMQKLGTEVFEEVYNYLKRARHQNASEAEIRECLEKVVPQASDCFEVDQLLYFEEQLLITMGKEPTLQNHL
Chain of MAP kinase-activated protein kinase 3 (Homo sapiens) (Q16644 whole entry, looked up): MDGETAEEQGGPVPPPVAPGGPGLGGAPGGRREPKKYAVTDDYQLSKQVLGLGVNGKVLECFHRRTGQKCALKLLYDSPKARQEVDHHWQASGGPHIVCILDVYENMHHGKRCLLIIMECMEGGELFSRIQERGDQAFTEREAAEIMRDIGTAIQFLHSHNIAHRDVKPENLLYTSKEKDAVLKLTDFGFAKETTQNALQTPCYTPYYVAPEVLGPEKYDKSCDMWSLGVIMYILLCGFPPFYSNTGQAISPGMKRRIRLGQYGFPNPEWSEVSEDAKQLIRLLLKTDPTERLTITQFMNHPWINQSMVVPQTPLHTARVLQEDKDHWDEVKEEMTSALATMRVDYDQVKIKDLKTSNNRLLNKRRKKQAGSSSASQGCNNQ
Chain of Casein kinase I isoform alpha (Homo sapiens) (P48729 2-337 limits assumed): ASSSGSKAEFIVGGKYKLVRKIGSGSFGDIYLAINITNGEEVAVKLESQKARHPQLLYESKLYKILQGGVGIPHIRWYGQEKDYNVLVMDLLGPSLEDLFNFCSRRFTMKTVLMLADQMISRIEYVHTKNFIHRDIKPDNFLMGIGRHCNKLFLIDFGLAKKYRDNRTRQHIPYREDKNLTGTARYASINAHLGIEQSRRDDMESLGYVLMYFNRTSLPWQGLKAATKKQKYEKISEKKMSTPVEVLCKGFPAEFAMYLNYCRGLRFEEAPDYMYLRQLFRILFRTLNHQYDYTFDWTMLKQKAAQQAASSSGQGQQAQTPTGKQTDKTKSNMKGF
Chain of Aurora kinase A (Homo sapiens) (O14965 whole entry): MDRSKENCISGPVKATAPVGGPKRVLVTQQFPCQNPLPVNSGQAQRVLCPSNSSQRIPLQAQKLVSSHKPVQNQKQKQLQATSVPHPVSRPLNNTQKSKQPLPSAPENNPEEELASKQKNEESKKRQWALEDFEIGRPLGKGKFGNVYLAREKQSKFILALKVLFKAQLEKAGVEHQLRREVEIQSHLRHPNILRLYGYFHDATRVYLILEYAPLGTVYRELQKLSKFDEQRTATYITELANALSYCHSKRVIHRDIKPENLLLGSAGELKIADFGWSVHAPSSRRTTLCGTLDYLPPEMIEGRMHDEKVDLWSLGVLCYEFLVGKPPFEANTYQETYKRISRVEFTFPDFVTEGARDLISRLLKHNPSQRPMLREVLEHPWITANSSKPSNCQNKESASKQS
Chain of Interleukin-1 receptor-associated kinase 4 (Homo sapiens) (Q9NWZ3 whole entry): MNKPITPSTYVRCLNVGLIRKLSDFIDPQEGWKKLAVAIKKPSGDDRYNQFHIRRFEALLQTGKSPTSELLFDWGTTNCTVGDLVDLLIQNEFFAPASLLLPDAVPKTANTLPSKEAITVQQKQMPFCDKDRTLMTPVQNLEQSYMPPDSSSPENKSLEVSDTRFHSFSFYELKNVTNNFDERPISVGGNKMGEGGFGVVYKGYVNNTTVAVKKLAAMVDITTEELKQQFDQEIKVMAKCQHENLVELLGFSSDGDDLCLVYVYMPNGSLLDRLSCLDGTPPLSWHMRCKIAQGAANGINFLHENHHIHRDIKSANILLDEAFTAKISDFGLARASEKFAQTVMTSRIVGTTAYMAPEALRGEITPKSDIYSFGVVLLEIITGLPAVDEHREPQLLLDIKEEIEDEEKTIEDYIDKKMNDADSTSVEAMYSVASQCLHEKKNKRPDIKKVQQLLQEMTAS

Row | Structure (SMILES) | IC50 [1] [µM] | Drug metabolism [2] [nmol/min/mg] | IC50 [3] [µM] | IC50 [4] [µM] | IC50 [5] [µM] | Activity (Mus musculus [6]) [%] | Activity (Mus musculus [7]) | Activity [8] [%] | Activity [9] [%] | Activity [10] [%] | Activity [11] [%] | Activity [12] [%] | Activity [13] [%] | Activity [14] [%] | Activity [15] [%] | Activity [16] [%] | Activity [17] [%] | Activity [18] [%] | Activity [19] [%] | Activity [20] [%] | other results
1 | CCN1CCN(Cc2ccc(-c3cc4c(-c5cccc(N6CCOc7cc(C8CC8)cc(F)c7C6=O)c5CO)ccnc4[nH]3)nc2)CC1 | 0.0026 | < 0.04 | > 10 | > 10 | > 10 | 69 | Dose-dependent effect | -3 | 0 | -1 | 2 | -4 | -3 | 2 | 2 | -14 | 2 | -4 | 1 | -4 | Activity [21]: -1%; Activity [22]: -5%; Activity [23]: -2%; Activity [24]: -2%; Activity [25]: 0%
2 | O=C1c2c(F)cc(C3CC3)cc2OCCN1c1cccc(-c2ccnc3[nH]c(C4=CCN(C5COC5)CC4)cc23)c1CO | 0.0031 | < 0.04 | > 10 | > 10 | > 10 | 44 | Dose-dependent effect | 2 | 1 | 0 | -3 | 1 | -3 | -28 | -1 | -20 | 1 | 3 | 3 | 3 | Activity [21]: -1%; Activity [22]: -6%; Activity [23]: -3%; Activity [24]: -10%; Activity [25]: 2%
